Laboratory results taken from US20250073309A1, “METHODS OF TREATMENT OF PEDIATRIC PUBERTY USING ORAL FORMULATIONS OF LEUPROLIDE” (Enteris Biopharma, Inc., priority 2021, published 2025).

Conditions: female, human, in vivo, sc, 1 mg
Procedure: The presently disclosed embodiments may include a technology platform employing enteric coating and permeation enhancement to enable systemic delivery of peptides via the oral route. To determine whether the oral formulation described herein enables systemic delivery of therapeutic doses of the GnRH agonist leuprolide via oral route, a randomized, four-period, four-treatment, crossover pharmacokinetic and food effect study was conducted in 14 healthy female volunteers, which compared PK profiles following single administrations of 1 and 4 mg of leuprolide—the latter under both fasting and fed conditions—to that of a single subcutaneous injection of 1 mg of leuprolide acetate.
Study objectives were to assess the relative bioavailability, dose proportionality, safety and tolerability of orally-administered leuprolide, as well as the effect of food on drug absorption. Frequent blood sampling for 24 hours followed each dose, and each treatment was separated by 7 days. […] The ‘fed’ condition involved consumption of a high-fat, high-calorie meal 30 minutes prior to drug administration.

Mean AUC0-24h: 163.0 ± 18.8 ng·h/mL
Mean Cmax: 59.4 ± 9.1 ng/mL
Mean Tmax: 3.49 ± 0.23 h
SMILES: CCNC(=O)[C@@H]1CCCN1C(=O)[C@H](CCCNC(=N)N)NC(=O)[C@H](CC(C)C)NC(=O)[C@@H](CC(C)C)NC(=O)[C@H](Cc1ccc(O)cc1)NC(=O)[C@H](CO)NC(=O)[C@H](Cc1c[nH]c2ccccc12)NC(=O)[C@H](Cc1c[nH]cn1)NC(=O)[C@@H]1CCC(=O)N1 [sc leuprolide, leuprolide acetate]
